Patent publication US6180385A (priority 1996, dated 2001)

Legend:
[1] = system: L proteinase; conditions: cited from earlier work
[2] = target: T1, Lb proteinase (Foot-and-mouth disease virus serotype O, UniProt P03305); format: biochemical, FMDV
[3] = target: T1, Lb proteinase

T1 sequence (P03305 29-201 limits assumed): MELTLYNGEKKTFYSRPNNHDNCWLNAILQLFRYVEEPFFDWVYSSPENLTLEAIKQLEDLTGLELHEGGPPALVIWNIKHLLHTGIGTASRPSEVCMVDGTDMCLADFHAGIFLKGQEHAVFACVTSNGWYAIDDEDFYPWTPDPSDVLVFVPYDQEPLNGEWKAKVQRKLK

Compound | cleavage of peptide in the absence of SDS (controls) [3] | peptide cleaved by Lb (qualitative) [3] | further results
CC(C)CC(NC(=O)C1OC1C(=O)O)C(=O)NCCCCN=C(N)N (stereo not shown) [Peptide E64, E64] |  |  | effect on the L proteinase [1]: inhibition
CCCCCCCCCCCCOS(=O)(=O)O [SDS] |  |  | cleavage of peptide LVP4-1 by Lb proteinase in the presence of inhibitor [2]: No cleavage; inhibition of cleavage of peptides P89, p220-4 and p220-6 by Lb proteinase [2]: complete inhibition
Ac-T*R*P I I T T A G P S D M Y V H-NH2 [Peptide P89] | efficient cleavage | cleaved | 
G R T T L S T R*G P P R G G P G [p220-4] | efficient cleavage | cleaved | 
T P S F A N L G*R T T L S T R G [p220-6] | efficient cleavage | cleaved | FMDV Lb cleavage site on the peptide (* indicates cleavage site) [3]: G*R
